The source made the active and inactive calls. The rule behind the calls is not given here.
Key:
[1] = Induction of apoptosis in human MINO cells assessed as early apoptotic cells at 5 uM incubated for 24 hrs by Annexin V-FITC/PI staining based flow cytometry assay (reference value: 1.04%); assay type: functional
[2] = tested on: MINO; test: Induction of mitochondrial apoptosis pathway in human MINO cells assessed as downregulation of procaspase-3 expression at 5 uM incubated for 24 hrs by Western blotting assay; assay type: functional, cell-based
[3] = Induction of apoptosis in human MINO cells assessed as late apoptotic cells at 5 uM incubated for 24 hrs by Annexin V-FITC/PI staining based flow cytometry assay (reference value: 8.29%); assay type: functional
[4] = tested on: MINO; test: Binding affinity to RbAp48 in human MINO cells assessed as increase in thermal stability at 5 uM at 5 to 10 degreeC incubated for 24 hrs by CETSA; assay type: cell-based
[5] = Induction of cell cycle arrest in human MINO cells assessed as G0/G1 phase cells at 5 uM incubated for 24 hrs by propidium iodide staining based flow cytometry assay (reference value: 67.56%); assay type: functional
[6] = Potency index, ratio of tazemetostat IC50 to test compound IC50 for antiproliferative activity against human MINO cells; assay type: functional
[7] = Induction of apoptosis in human MINO cells assessed as viable cells at 5 uM incubated for 24 hrs by Annexin V-FITC/PI staining based flow cytometry assay (reference value: 89.93%); assay type: functional; conditions: read-out: Activity
[8] = Cmax in ICR mouse at 2 mg/kg, iv; assay type: ADME, organism-based; conditions: in vivo
[9] = tested on: MINO; test: Induction of mitochondrial apoptosis pathway in human MINO cells assessed as upregulation of bax protein expression at 5 uM incubated for 24 hrs by Western blotting assay; assay type: functional, cell-based
[10] = tested on: MINO; test: PROTAC activity at EZH2/E3 ligase in human MINO cells assessed as reduction in EZH2 protein level at 1 to 2.5 uM incubated for 24 hrs by Western blotting assay; assay type: cell-based; conditions: dose 1-2.5 µM
[11] = Induction of cell cycle arrest in human MINO cells assessed as S phase cells at 5 uM incubated for 24 hrs by propidium iodide staining based flow cytometry assay (reference value: 25.19%); assay type: functional
[12] = tested on: MINO; test: Downregulation of RbAp48 protein expression in human MINO cells at 5 uM incubated for 24 hrs by Western blotting assay; assay type: functional, cell-based
[13] = Induction of apoptosis in human MINO cells assessed as necrotic cells at 5 uM incubated for 24 hrs by Annexin V-FITC/PI staining based flow cytometry assay (reference value: 0.74%); assay type: functional
[14] = Cmax in ICR mouse at 10 mg/kg, po; assay type: ADME, organism-based; conditions: in vivo
[15] = Induction of cell cycle arrest in human MINO cells assessed as G2/M phase cells at 5 uM incubated for 24 hrs by propidium iodide staining based flow cytometry assay (reference value: 7.26%); assay type: functional
[16] = Half-life in ICR mouse at 10 mg/kg, po; assay type: ADME, organism-based; conditions: in vivo
[17] = tested on: OCI-Ly7; test: Antiproliferative activity against human OCILY7 cells by MTT assay; assay type: functional, cell-based
[18] = tested on: MINO; test: Induction of mitochondrial apoptosis pathway in human MINO cells assessed as upregulation of cleaved PARP expression at 5 uM incubated for 24 hrs by Western blotting assay; assay type: functional, cell-based
[19] = Initial plasma concentration in ICR mouse at 2 mg/kg, iv; assay type: ADME, organism-based
[20] = MRT(0 to infinity) in ICR mouse at 2 mg/kg, iv; assay type: ADME, organism-based; conditions: in vivo
[21] = Antiproliferative activity against human MINO cells by MTT assay; assay type: functional, cell-based
[22] = Volume of distribution at steady state in ICR mouse at 2 mg/kg, iv; assay type: ADME, organism-based; conditions: in vivo, read-out: Vdss
[23] = tested on: MINO; test: PROTAC activity at EZH2/E3 ligase in human MINO cells assessed as reduction in EZH2 protein level at 5 uM incubated for 24 hrs by Western blotting assay; assay type: cell-based; design: scale not given: the % may be the effect or the level left
[24] = MRT(0 to t) in ICR mouse at 10 mg/kg, po; assay type: ADME, organism-based; conditions: in vivo
[25] = Tmax in ICR mouse at 2 mg/kg, iv; assay type: ADME, organism-based; conditions: in vivo
[26] = Bioavailability in ICR mouse at 2 mg/kg, iv; assay type: ADME, organism-based; conditions: in vivo
[27] = MRT(0 to infinity) in ICR mouse at 10 mg/kg, po; assay type: ADME, organism-based; conditions: in vivo
[28] = molecular target: Polycomb protein EED (Homo sapiens) (UniProt O75530); test: Binding affinity to EED in human MINO cells assessed as increase in thermal stability at 5 uM at 5 to 10 degreeC incubated for 24 hrs by CETSA; assay type: cell-based
Chain of Polycomb protein EED (Homo sapiens) (O75530 2-441 limits assumed): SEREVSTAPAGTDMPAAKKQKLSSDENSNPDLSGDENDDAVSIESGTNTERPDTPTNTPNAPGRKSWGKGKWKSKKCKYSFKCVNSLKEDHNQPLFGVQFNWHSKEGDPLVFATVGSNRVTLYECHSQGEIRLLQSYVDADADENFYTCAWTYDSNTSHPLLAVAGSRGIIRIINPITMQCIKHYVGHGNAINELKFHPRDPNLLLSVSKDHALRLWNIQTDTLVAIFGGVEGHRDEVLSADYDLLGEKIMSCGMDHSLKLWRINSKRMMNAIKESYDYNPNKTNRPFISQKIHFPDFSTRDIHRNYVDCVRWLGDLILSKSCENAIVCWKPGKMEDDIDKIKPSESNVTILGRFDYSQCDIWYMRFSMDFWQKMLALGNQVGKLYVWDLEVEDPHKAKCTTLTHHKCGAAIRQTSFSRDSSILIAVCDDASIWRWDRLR

[29] = AUC(0 to t) in ICR mouse at 2 mg/kg, iv; assay type: ADME, organism-based; conditions: in vivo
[30] = Apparent volume of distribution in ICR mouse at 2 mg/kg, iv; assay type: ADME, organism-based; conditions: in vivo, read-out: Vz
[31] = AUC(0 to t) in ICR mouse at 10 mg/kg, po; assay type: ADME, organism-based; conditions: in vivo
[32] = AUC(0 to infinity) in ICR mouse at 10 mg/kg, po; assay type: ADME, organism-based; conditions: in vivo
[33] = tested on: MINO; test: PROTAC activity at EZH2/E3 ligase in human MINO cells assessed as reduction in EZH2 protein level incubated for 24 hrs by Western blotting assay; assay type: cell-based; conditions: dose 0.02-20 µM
[34] = tested on: MINO; test: Induction of mitochondrial apoptosis pathway in human MINO cells assessed as downregulation of bcl-2 expression at 5 uM incubated for 24 hrs by Western blotting assay; assay type: functional, cell-based
[35] = Half-life in ICR mouse at 2 mg/kg, iv; assay type: ADME, organism-based; conditions: in vivo
[36] = tested on: MINO; test: Induction of mitochondrial apoptosis pathway in human MINO cells assessed as downregulation of procaspase-9 expression at 5 uM incubated for 24 hrs by Western blotting assay; assay type: functional, cell-based
[37] = Clearance in ICR mouse at 2 mg/kg, iv; assay type: ADME, organism-based; conditions: in vivo
[38] = tested on: MINO; test: Downregulation of H3k27me3 protein expression in human MINO cells at 5 uM incubated for 24 hrs by Western blotting assay; assay type: functional, cell-based
[39] = molecular target: Polycomb protein SUZ12 (Homo sapiens) (UniProt Q15022); test: Binding affinity to SUZ12 in human MINO cells assessed as increase in thermal stability at 5 uM at 5 to 10 degreeC incubated for 24 hrs by CETSA; assay type: cell-based
Chain of Polycomb protein SUZ12 (Homo sapiens) (Q15022 whole entry): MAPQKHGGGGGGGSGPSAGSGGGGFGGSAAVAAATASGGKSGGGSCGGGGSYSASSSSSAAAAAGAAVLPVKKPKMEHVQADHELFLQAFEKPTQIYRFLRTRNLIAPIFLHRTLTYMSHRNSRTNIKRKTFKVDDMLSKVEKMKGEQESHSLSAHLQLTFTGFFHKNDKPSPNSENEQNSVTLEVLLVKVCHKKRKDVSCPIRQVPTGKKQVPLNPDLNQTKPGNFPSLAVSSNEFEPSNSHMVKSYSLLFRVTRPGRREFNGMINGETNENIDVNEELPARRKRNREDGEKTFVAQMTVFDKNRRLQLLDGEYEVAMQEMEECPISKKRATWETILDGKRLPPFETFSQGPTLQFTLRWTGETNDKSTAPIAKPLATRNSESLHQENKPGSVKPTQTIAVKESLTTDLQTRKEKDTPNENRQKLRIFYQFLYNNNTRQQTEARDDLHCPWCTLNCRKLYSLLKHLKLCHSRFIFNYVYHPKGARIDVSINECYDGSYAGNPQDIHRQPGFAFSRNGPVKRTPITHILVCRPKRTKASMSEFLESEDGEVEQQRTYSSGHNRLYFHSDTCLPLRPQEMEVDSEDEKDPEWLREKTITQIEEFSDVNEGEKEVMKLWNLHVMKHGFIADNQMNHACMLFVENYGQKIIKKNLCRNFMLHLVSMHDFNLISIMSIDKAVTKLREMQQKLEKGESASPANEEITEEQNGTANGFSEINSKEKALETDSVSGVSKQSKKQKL

[40] = Tmax in ICR mouse at 10 mg/kg, po; assay type: ADME, organism-based; conditions: in vivo
[41] = tested on: MINO; test: Downregulation of EED protein expression in human MINO cells at 5 uM incubated for 24 hrs by Western blotting assay; assay type: functional, cell-based
[42] = tested on: MINO; test: Downregulation of SUZ12 protein expression in human MINO cells at 5 uM incubated for 24 hrs by Western blotting assay; assay type: functional, cell-based
[43] = tested on: MINO; test: Downregulation of EZH2 protein expression in human MINO cells at 5 uM incubated for 24 hrs by Western blotting assay; assay type: functional, cell-based
[44] = tested on: MINO; test: Induction of mitochondrial apoptosis pathway in human MINO cells assessed as upregulation of cytochrome C expression at 5 uM incubated for 24 hrs by Western blotting assay; assay type: functional, cell-based
[45] = MRT(0 to t) in ICR mouse at 2 mg/kg, iv; assay type: ADME, organism-based; conditions: in vivo
[46] = molecular target: Histone-lysine N-methyltransferase EZH2 (Homo sapiens) (UniProt Q15910); test: Binding affinity to EZH2 in human MINO cells assessed as increase in thermal stability at 5 uM at 5 to 10 degreeC incubated for 24 hrs by CETSA; assay type: cell-based
Chain of Histone-lysine N-methyltransferase EZH2 (Homo sapiens) (Q15910 whole entry, looked up): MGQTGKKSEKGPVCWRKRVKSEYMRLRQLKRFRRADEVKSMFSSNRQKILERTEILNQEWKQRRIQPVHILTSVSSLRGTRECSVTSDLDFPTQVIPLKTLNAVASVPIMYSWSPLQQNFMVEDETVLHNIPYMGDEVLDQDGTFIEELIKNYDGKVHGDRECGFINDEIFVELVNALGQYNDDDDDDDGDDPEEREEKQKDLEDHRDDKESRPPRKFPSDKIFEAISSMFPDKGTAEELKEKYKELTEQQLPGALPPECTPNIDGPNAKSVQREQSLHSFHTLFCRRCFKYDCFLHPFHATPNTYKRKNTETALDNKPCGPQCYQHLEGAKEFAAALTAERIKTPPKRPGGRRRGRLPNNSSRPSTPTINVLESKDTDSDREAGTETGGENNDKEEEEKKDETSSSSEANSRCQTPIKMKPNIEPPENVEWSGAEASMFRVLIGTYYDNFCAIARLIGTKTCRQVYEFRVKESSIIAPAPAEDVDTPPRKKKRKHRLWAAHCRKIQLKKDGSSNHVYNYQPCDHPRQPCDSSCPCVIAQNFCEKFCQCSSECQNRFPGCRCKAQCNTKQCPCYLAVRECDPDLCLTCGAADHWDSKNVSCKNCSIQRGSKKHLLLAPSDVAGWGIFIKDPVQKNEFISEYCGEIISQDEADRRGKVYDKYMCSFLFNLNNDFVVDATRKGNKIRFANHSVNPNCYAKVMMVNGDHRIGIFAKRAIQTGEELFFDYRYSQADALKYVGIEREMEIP

[47] = AUC(0 to infinity) in ICR mouse at 2 mg/kg, iv; assay type: ADME, organism-based; conditions: in vivo

## CCN(c1cc(-c2ccc(CN3CCN(C(=O)CC4CCC(CNc5cccc6c5C(=O)N(C5CCC(=O)NC5=O)C6=O)CC4)CC3)cc2)cc(C(=O)NCc2c(C)cc(C)[nH]c2=O)c1C)C1CCOCC1 (configuration not stated)
[1]
  Activity: 4.89%
[2]
  Activity: Active
[3]
  Activity: 57.55%
[4]
  Activity: inactive
[5]
  Activity: 79.47%
[6]
  Ratio IC50: 214
[7]
  viability at 5 µM: 35.6%
[8]
  Cmax: 7210 ng/mL
[9]
  Activity: Active
[10]
  Activity: Active; Significant And Potent Activity Observed
[11]
  Activity: 14.41%
[12]
  Activity: Active
[13]
  Activity: 2%
[14]
  Cmax: 2980 ng/mL
[15]
  Activity: 6.11%
[16]
  half-life: 11.7 h
[17]
  IC50: 150 nM
[18]
  Activity: Active
[19]
  C0: 6500 ng/mL
[20]
  MRT inf: 31.4 h
[21]
  IC50: 5 nM
[22]
  Vd: 0.323 L/kg
[23]
  Activity: 100%
[24]
  MRT last: 8.87 h
[25]
  Tmax: 0.42 h
[26]
  bioavailability: 6.05%
[27]
  MRT inf: 17.6 h
[28]
  Activity: inactive
[29]
  AUC(0-t): 98400 ng·h/mL
[30]
  Vd: 0.329 L/kg
[31]
  AUC(0-t): 29700 ng·h/mL
[32]
  AUC(0-inf): 40500 ng·h/mL
[33]
  Activity: Dose-dependent-effect
[34]
  Activity: Active
[35]
  half-life: 21.9 h
[36]
  Activity: Active
[37]
  clearance: 0.191 mL/min/kg
[38]
  Activity: Active
[39]
  Activity: inactive
[40]
  Tmax: 0.83 h
[41]
  Activity: Active
[42]
  Activity: Active
[43]
  Activity: Active
[44]
  Activity: Active
[45]
  MRT last: 9.7 h
[46]
  Activity: Active
[47]
  AUC(0-inf): 190000 ng·h/mL
